Values of other authors, collected in patent publication US5578629A, “Benzamide-containing inhibitors of farnesyl-protein transferase” (Merck & Co., Inc., priority 1995, dated 1996).

System: farnesyl-protein transferase
Conditions: via inhibition of HMG-CoA reductase

SMILES	Indirect inhibition of farnesyl-protein transferase in vivo
CC[C@H](C)C(=O)O[C@H]1C[C@@H](C)C=C2C=C[C@H](C)[C@H](CC[C@@H]3C[C@@H](O)CC(=O)O3)[C@H]21 [lovastatin]	Indirect inhibition of farnesyl-protein transferase in vivo has been demonstrated
CC[C@H](C)C(=O)O[C@H]1CCC=C2C=C[C@H](C)[C@H](CC[C@@H]3C[C@@H](O)CC(=O)O3)[C@H]21 [compactin]	Indirect inhibition of farnesyl-protein transferase in vivo has been demonstrated
